# Experimental data taken from ChEMBL document CHEMBL1124140, “Oxidants, oxidant drugs, and malaria” (J Med Chem, 1988).
# Assays:
# Plasmodium falciparum [1] = test: Inhibitory activity against chloroquine-resistant Plasmodium falciparum; format: functional, organism-based
# Plasmodium falciparum [2] = test: (§1) Inhibitory activity against Chloroquine-sensitive Plasmodium falciparum; format: functional, organism-based
# Plasmodium falciparum [3] = test: Inhibitory activity against Chloroquine-resistant Plasmodium falciparum; format: functional; conditions: read-out: ED50 (the source's name)
# Plasmodium falciparum [4] = test: as §1; format: functional; conditions: read-out: ED50 (the source's name)
# Plasmodium falciparum [5] = test: (§2) In vitro inhibition against Plasmodium falciparum; format: functional, organism-based
# Plasmodium falciparum [6] = test: In vitro inhibition against Plasmodium falciparum; […]; format: functional, organism-based
# Plasmodium falciparum [7] = test: as §2; format: functional; conditions: read-out: ED50 (the source's name)
smiles,measurement,setting,value
CC(C)(C)OC(=O)OC1CCC2C[C@@H]3C=CC2(OO3)C1(C)C (some centres not stated),IC50,Plasmodium falciparum [1],330 nM
same,IC50,Plasmodium falciparum [2],190 nM
CC(C)C12CCC(C)(CC1)OO2,EC50,Plasmodium falciparum [3],210 nM
same,EC50,Plasmodium falciparum [4],80 nM
CC(C)(C)COO,IC50,Plasmodium falciparum [5],41000 nM
C[C@@H]1CC[C@H]2[C@@H](C)C(=O)O[C@@H]3O[C@@]4(C)CC[C@@H]1[C@]32OO4 [ARTEMISININ],IC50,Plasmodium falciparum [6],4 nM
CC1=C2[C@H]3OC(=O)[C@@H](C)[C@@H]3CC[C@@]2(C)C=CC1=O [SANTONIN],EC50,Plasmodium falciparum [7],2800 nM
